Assay: in vitro
Details: human, hela cells, % viability
Work on `O=C(c1cc(-c2ccncc2)nc2ccc(Cl)cc12)N1CCN(C/C=C/c2ccccc2)CC1` [CBK267754] yielded a viability at 28.5 h, 10 µM of 106%.
`CC(CN1CCCCC1)NC(=O)c1cc(-c2ccncc2)nc2ccc(Br)cc12` (stereo not shown) [CBK267756] showed a viability at 28.5 h, 10 µM of 90.6%.
Work on `Cc1ccccc1-c1cc(C(=O)NCCCn2cc(Br)cn2)c2ccccc2n1` [CBK267758] yielded a viability at 28.5 h, 10 µM of 97.8%.
`CN(C)CCNC(=O)c1cc(-c2cccnc2)nc2c(Cl)cccc12` [CBK267761] showed a viability at 28.5 h, 10 µM of 112%.
In the case of `O=C(c1cc(-c2ccncc2)nc2ccc(Cl)cc12)N1CCN(Cc2ccc3c(c2)OCO3)CC1` [CBK267765], the viability at 28.5 h, 10 µM is reported as 85.4%.
For `COc1ccc(S(=O)(=O)N2CCN(C(=O)c3cc(-c4cccnc4)nc4c(C)cc(C)cc34)CC2)cc1OC` [CBK267767], the viability at 28.5 h, 10 µM was 99.4%.
Compound `Cc1cc(C)c2nc(-c3ccccn3)cc(C(=O)NCc3cccs3)c2c1` [CBK267772] has a viability at 28.5 h, 10 µM of 86.1%.
For `CC(=O)Nc1cccc(NC(=O)c2cc(-c3ccncc3)nc3ccc(Cl)cc23)c1` [CBK267773], the viability at 28.5 h, 10 µM was 92.6%.
Work on `NS(=O)(=O)c1ccc(CNC(=O)c2cc(-c3cccc(Cl)c3)nc3ccccc23)cc1` [CBK267774] yielded a viability at 28.5 h, 10 µM of 88.7%.
In the case of `CNS(=O)(=O)c1ccc(NC(=O)c2cc(-c3cccnc3)nc3ccc(Br)cc23)cc1` [CBK267776], the viability at 28.5 h, 10 µM is reported as 95.5%.
In the case of `COc1ccc(NC(=O)c2cc(-c3cccc(Cl)c3)nc3ccccc23)c([N+](=O)[O-])c1` [CBK267777], the viability at 28.5 h, 10 µM is reported as 86.7%.
In the case of `Cc1cc(C)c2nc(-c3ccccn3)cc(C(=O)Nc3ccc(S(=O)(=O)Nc4cc(C)on4)cc3)c2c1` [CBK267779], the viability at 28.5 h, 10 µM is reported as 105%.
`Cc1c(-c2cccc(Cl)c2)nc2ccccc2c1C(=O)NCCc1ccc(S(N)(=O)=O)cc1` [CBK267784] showed a viability at 28.5 h, 10 µM of 96%.
For `O=C(Oc1cccc(-c2cnc3ccccc3n2)c1)c1ccc(S(=O)(=O)N2CCCCC2)cc1` [CBK267785], the viability at 28.5 h, 10 µM was 104%.
Work on `O=C(O)c1[nH]c2ccccc2c1C(c1cccs1)c1c(C(=O)O)[nH]c2ccccc12` [CBK267786] yielded a viability at 28.5 h, 10 µM of 118%.
`N#CC1=C(N)Oc2[nH]nc(-c3ccccc3)c2C12C(=O)N(Cc1ccccc1)c1ccccc12` (stereo not shown) [CBK267787] showed a viability at 28.5 h, 10 µM of 93.7%.
With `O=C(O)c1[nH]c2ccccc2c1C(c1ccc(OC2CCCC2)cc1)c1c(C(=O)O)[nH]c2ccccc12` [CBK267789] the viability at 28.5 h, 10 µM was 85.9%.
For `CN(C)CCNCCCSc1ccc(Cl)cc1` [CBK267794C], the viability at 28.5 h, 10 µM was 104%.
Compound `O=C(c1c[nH]c2ccccc12)C(O)C(c1ccccc1)N1CCCCC1` (stereo not shown) [CBK267799] has a viability at 28.5 h, 10 µM of 94.1%.
Compound `CN(C)CCNCCOc1cccc([N+](=O)[O-])c1` [CBK267803C] has a viability at 28.5 h, 10 µM of 99.7%.
Compound `COc1cc(C(c2c(C(=O)O)[nH]c3ccccc23)c2c(C(=O)O)[nH]c3ccccc23)cc(I)c1O` [CBK267804] has a viability at 28.5 h, 10 µM of 90.6%.
Compound `Cc1ccc(OC(=O)c2ccc(S(=O)(=O)N(C)C)cc2)c(-n2nc3ccccc3n2)c1` [CBK267805] has a viability at 28.5 h, 10 µM of 81.2%.
With `O=C(Nc1ccccc1)c1ccc(S(=O)(=O)N2CCC(C(=O)O)CC2)cc1` [CBK267806] the viability at 28.5 h, 10 µM was 89.7%.
With `CN(C)S(=O)(=O)c1ccc(C(=O)Nc2ccccc2O)cc1` [CBK267809] the viability at 28.5 h, 10 µM was 94.1%.
With `CC(NC(=O)c1ccccc1Br)c1nnc(SCc2ccc([N+](=O)[O-])cc2)n1C` (stereo not shown) [CBK267810] the viability at 28.5 h, 10 µM was 103%.
`O=C(O)c1[nH]c2ccccc2c1C(c1ccsc1)c1c(C(=O)O)[nH]c2ccccc12` [CBK267811] showed a viability at 28.5 h, 10 µM of 103%.
For `O=C(Oc1ccc(-c2cnc3ccccc3n2)cc1)c1ccc(S(=O)(=O)N2CCCCC2)cc1` [CBK267812], the viability at 28.5 h, 10 µM was 93.7%.
`O=C(O)c1[nH]c2ccccc2c1C(c1cc(Cl)cc([N+](=O)[O-])c1O)c1c(C(=O)O)[nH]c2ccccc12` [CBK267814] showed a viability at 28.5 h, 10 µM of 95.6%.
`CCN1CCCC1CNS(=O)(=O)c1cc(C(N)=O)ccc1OC` (stereo not shown) [CBK267815] showed a viability at 28.5 h, 10 µM of 115%.
In the case of `Cc1ccc(C)c(OCCNCCN(C)C)c1Cl` [CBK267816C], the viability at 28.5 h, 10 µM is reported as 88.5%.
In the case of `CN(Cc1ccccc1)C(=O)c1ccccc1NC(=O)c1ccccc1` [CBK267818], the viability at 28.5 h, 10 µM is reported as 107%.

From article PMC12040169 (PLOS Biology, 2025)
